Source: US20180344725A1, “QUINOLONE CHALCONE COMPOUNDS AND USES THEREOF” (priority 2015, published 2018)

How the values were obtained:
[1] = Toxicology analysis of spleen (H&E); type: in vivo, mice; set-up: key to Red Pulp (RP): Myeloid elements: ↑↑: Double and single upward arrows indicate highly and moderately increased, respectively; ↑: Double and single upward arrows indicate highly and moderately increased, respectively; settings: 30 days, Paclitaxel 10 mg/kg, CTR 30 mg/kg, or Tax (5) + CTR (15)
Procedure: Animals were monitored for food and water consumption every day, and their body weights and tumor volumes were measured twice per week. Tumor volumes were measured with a digital caliper and were determined by using the following formula: ½ length×width^2. Blood samples were collected via cardiac puncture and processed further for ALT and AST measurements. The animals were then immediately euthanized by carbon dioxide. Tumors and vital organs (spleen, kidney, liver and lung) were collected and fixed in 10% buffered formalin at 4° C. overnight before being processed for paraffin embedding. The paraffin-embedded blocks were then cut into 4-5 μm thick sections. Each section of tumors and organs was stained with hematoxylin and eosin (H&E).
Changes in body weight, hemoglobin (Hb) and the amount and ratio of alanine transaminase (ALT)/aspartate transaminase (AST) were used to measure toxic effects. In addition, vital organs (liver, spleen, kidney and lung) were analyzed by […] after they were harvested, fixed, processed, paraffin-embedded, sectioned, and stained as described above.
ATH490 athymic mice were sham-treated (vehicle only) or treated with compounds of the indicated doses for 30 days, followed by toxicity analysis after spleen tissues were H & E stained. The numbers in the brackets are mg per kg of body weight. Arrows indicate the presence of macrophages in the red pulp (RP). Images were taken using a Zeiss EPI-fluorescent microscope (10× objective). Drug administration was carried out as described in Table 11.

MCF10CA1a = experiment: SRB cell viability, isogenic breast cell lines; type: cell-based; settings: MCF10CA1a (MCF10Ala [sic]), 72 hours; for Cell survival rate: 0.39 μM; for viability at 0.03125 µM: 31.25 nM
Procedure: FIG. 9 illustrates that CTR-17, CTR-20, CTR-21 and CTR-32 preferentially kill the fully malignant […] breast cancer cells over the pre-malignant MCF10AT1 and the non-malignant MCF-10A breast cells. Cells were treated with (A) CTR-17 at doses of 0.10, 0.39, 1.56 or 6.25 μM; (B) CTR-20 at doses of 0.10, 0.39, 1.56 or 6.25 μM; (C) CTR-21 at doses of 7.81, 15.63, 31.25, 62.5, 125 or 250 nM; or (D) CTR-32 at doses of 7.81, 15.63, 31.25, 62.5, 125 or 250 nM for 72 hours. Cell viability was determined using an SRB assay.
All of the cell lines used were purchased from ATCC and cultured in RPMI-1640 supplemented with 10% fetal bovine serum and antibiotics (100 units penicillin/100 μg/ml streptomycin), unless stated otherwise. 1845B5 and MCF-10A non-cancer breast cell lines were cultured in DME/F12 medium supplemented with 10% fetal bovine serum, antibiotics and growth factors. KB-3-1 is a human epidermal carcinoma cell line and KB-C-2 is its isogenic multidrug-resistant cell line with over-expressing ABCB1/P-gp. […] The human small cell lung carcinoma H69 cell line and its multidrug-resistant MRP1-overexpressing isogenic H69AR cell line were purchased from ATCC. The H69AR cell line was established in the presence of increasing concentrations of Adriamycin (doxorubicin). H69 cells grow as large multi-cell aggregates, making it difficult to accurately count cell numbers. Therefore, the cytotoxicity results obtained from H69AR cells were compared to SW1271, a small cell lung carcinoma cell line without a multidrug-resistant phenotype. The IL-6 dependent bortezomib-resistant ANBL6-BR cell line was further supplemented with 1 ng/ml of IL-6. The MCF10AT1 and MCF10CA1a cell lines are isogenic to the MCF10A cell line, and obtained from Dr. Valerie Weaver at the Center for Bioengineering and Tissue Regeneration, UCSF, CA, USA. MCF10AT1 is a premalignant cell line generated by transforming MCF10A with c-Ha-Ras; and MCF10CA1a was isolated by selecting malignant cells after MCF10AT1 cells were engrafted into mice (Liu & Lin 2004; Marella et al. 2009). The MCF10AT1 and MCF10CA1a cells were cultured in DMEM supplemented with 10% FBS (volume/volume). MDA-MB231TaxR cell line was generated in house by culturing MDA-MB231 cells in gradually increasing doses of paclitaxel over one-year period, and finally maintained at 100 nM paclitaxel. The drug-resistant cells were cultured in the absence of drug for at least one passage before carrying out experiments. All cells were maintained in a humidified incubator at 37° C. (5% CO2/95% air). Cell line authentication was performed using short tandem repeat (STR) profiling.
For (anti)proliferation assays, 4,000-5,000 cells/well of the 96-well clustered dish were incubated for 16 hours, as described previously (Hu et al., 2008; Skehan et al., 1990). After 16 hours, culture medium was replaced with fresh medium containing different dilutions of test compounds dissolved in DMSO. Some wells were treated with 100 μl of 10% trichloroacetic acid (TCA) as a negative control and sham (medium with dimethyl sulfoxide; DMSO) treated cells were used as a positive control. After 72 hours post-incubation, medium was removed and cells were fixed with 10% TCA at 4° C. for 1 hour. TCA was removed and cells were washed with cold tap water, and plate was air-dried, followed by addition of 50 μl of 0.4% SRB staining solution to each well. After 30 minutes incubation, SRB staining solution was removed. Cells were washed with 1% acetic acid solution, and then washed with tap water to remove unbound staining solution, followed by air-drying. 200 μl of 10 mM (pH10.5) trizma base buffer was added to each well to solubilise macromolecules. SRB stained macromolecules were determined at a 540 nm wavelength using an automated plate reader (Synergy H4 Hybrid Multi-Mode Microplate Reader, BioTek, Winooski, Vt.). Cell growth (inhibition) was calculated by the following formula: […]

Liver mitotic cells = type: in vivo, mice; settings: 30 days; 10 mg paclitaxel, 30 mg CTR, or paclitaxel (5 mg) + CTR (15 mg)
Procedure: ATH490 athymic mice were treated as indicated in the listed concentrations for 30 days (FIG. 45A), and then the liver cell proliferation analyzed by examining the number of mitotic cells (white arrows in FIG. 45A). “Tax” denotes paclitaxel. The numbers in the brackets in (FIG. 45B) are mg/kg body weight. […] However, this small increase is considered normal as the AST/ALT ratio is <3 (Table 14).

Row | Structure (SMILES) | Capsule [1] | Red Pulp (RP): Myeloid elements [1] | White pulp (WP) [1] | Cell survival rate (MCF10CA1a) [%] | mitotic index in the liver (Liver mitotic cells) | viability at 0.03125 µM (MCF10CA1a) [%]
1 | COc1ccccc1C(=O)/C=C/c1cc2ccccc2[nH]c1=O [CTR-17, (E)-3-(3-(2-Methoxyphenyl)-3-oxoprop-1-enyl)quinolin-2(1H)-one] | Normal | elements: ↑ | Less but bigger | 39 | small increases in the mitotic index | –
2 | COc1ccc2[nH]c(=O)c(/C=C/C(=O)c3ccccc3OC)cc2c1 [CTR-20, (E)-6-Methoxy-3-(3-(2-methoxyphenyl)-3-oxoprop-1-enyl) quinolin-2(1H)-one] | Normal | elements: ↑ | Less but bigger | 10 | small increases in the mitotic index | –
3 | COc1ccccc1C(=O)/C=C/c1cc2cccc(OC)c2[nH]c1=O [CTR-21, (E)-8-methoxy-3-(3-(2-methoxyphenyl)-3-oxoprop-1-enyl) quinolin-2(1H)-one] | – | – | – | – | – | 10
4 | CCOc1ccccc1C(=O)/C=C/c1cc2ccccc2[nH]c1=O [CTR-32, (E)-3-(3-(2-ethoxyphenyl)-3-oxoprop-1-enyl)quinolin-2(1H)-one] | – | – | – | – | – | 40
5 | CC(=O)O[C@H]1C(=O)[C@@]2(C)[C@H]([C@H](OC(=O)c3ccccc3)[C@]3(O)C[C@H](OC(=O)[C@H](O)[C@@H](NC(=O)c4ccccc4)c4ccccc4)C(C)=C1C3(C)C)[C@]1(OC(C)=O)CO[C@@H]1C[C@@H]2O [Paclitaxel, reference compound] | Normal | elements: ↑↑^a | Less but bigger | – | small increases in the mitotic index | –
